We go through five compounds from patent publication US20160287554A1, “Small Molecule Metal-Activated Protein Inhibition” (University of South Florida, priority 2015, published 2016).

The test concerns the target 20S proteasome (Homo sapiens, UniProt P28074). Briefly: 20S proteasome chymotrypsin-like activity assay, cleavage of suc-leu-leu-val-tyr-AMC (fluorescence), with or without copper chloride. It is filed as biochemical. The conditions noted are these: for inhibition against the proteasome: one-dose experiments, 10 μM compound in the presence of 1 μM copper. The source says: Pro-drug compounds, according to embodiments of the invention, include: 3,4-dihydroxybenzoic acid; galloflavin; 2-{[(carbamoylsulfanyl)acetyl]amino}benzoic acid; 6,7-Dihydroxycoumaranone; 3,6-bis(hydroxymethyl)pyridazin-4(1H)-one; and 4′,5,7-trihydroxyisoflavone, as shown in FIG. 1. These compounds, and analogs thereof, can act individually or can be used in combination. These compounds, and similar compounds, are capable of binding copper ions and facilitating inhibition of the proteasome. These compounds, and similar compounds, are safe and efficacious theranostics and/or drugs to detect and/or treat cancers. These compounds are from the NCI Diversity Set 3. Preliminary identification of these compounds as potential Cu-complexes with the proteasome was conducted using an in silico screening method, according to an embodiment of the invention, for example, with graphic representations of the calculated docking of the pro-drugs of FIG. 1 with copper ion and the proteasome, as shown in FIGS. 2-7. The modeling method indicates the potential of candidates as the pro-drugs, which are tested experimentally to confirm their efficiency using an in vitro experimental assay that tests for inhibition of the chymotrypsin-like activity of the 20S proteasome.
A Beckman Coulter Biomek FX^P Lab Automation Workstation was used for automating the assays. A Perkin Elmer EnVision 2102 multilabel plate reader was used to read the plates by fluorescence measurements. Assays were performed in 384 well black Nunc plates. Each compound (2 μl in DMSO), when tested without copper chloride was added to 28 μl of buffer (50 mM Tris at pH 7.6 and 37° C.), with 20 μM, 10 μl 20S proteasome and 10 μl of suc-leu-leu-val-tyr-AMC as the substrate (purchased from Boston Biochem), and the rate of substrate cleavage by 20S proteasome activity was determined. In the presence of copper, the buffer amount was decreased to 25 μl and 3 μl copper chloride was used for chelation with the compound for testing in the presence of copper. To allow chelation of copper to the compound, the plate was allowed to sit for 40 minutes with gentle shaking. The overall volume per well was held at 50 μL. The compounds and substrate were initially dissolved in 100% DMSO, but the final concentration of DMSO per well plate was reduced to less than 2% following subsequent dilutions. Plates were incubated at 37° C. for 2 hours. For dose response curves, the concentrations of copper chloride and a pro-drug compound, were varied to get optimal activity. The plates were read with 340 nm excitation and 460 nm emission using the plate reader. All liquid transfers to the plates were automated using the Biomek workstation.

[1] abbreviates: NSC 37408 0.01 uM, CuCl2 0.01 uM.
Where [2] appears, read: NSC 37408 0.01 uM, CuCl2 0.05 uM.
[3] abbreviates: NSC 37408 0.01 uM, CuCl2 0.1 uM.
[4] abbreviates: NSC 37408 0.01 uM, CuCl2 0.5 uM.
[5] abbreviates: NSC 37408 0.02 uM, CuCl2 0.01 uM.
Where [6] appears, read: NSC 37408 0.02 uM, CuCl2 0.05 uM.
The mark [7] stands for this setting: NSC 37408 0.02 uM, CuCl2 0.1 uM.
[8] abbreviates: NSC 37408 0.02 uM, CuCl2 0.5 uM.
Setting [9] is: NSC 37408 0.2 uM, CuCl2 0.01 uM.
Setting [10] is: NSC 37408 0.2 uM, CuCl2 0.05 uM.
Where [11] appears, read: CuCl2 0.01 uM alone (NSC 37408 0 uM).
The mark [12] stands for this setting: CuCl2 0.05 uM alone (NSC 37408 0 uM).
Where [13] appears, read: CuCl2 0.1 uM alone (NSC 37408 0 uM).
The mark [14] stands for this setting: CuCl2 0.5 uM alone (NSC 37408 0 uM).
Setting [15] is: CuCl2 1 uM alone (NSC 37408 0 uM).
The mark [16] stands for this setting: CuCl2 10 uM alone (NSC 37408 0 uM).

“And” between values parts separate entries of the source, which are not always exact repeats. Equal entries are not always repeated.

For 6,7-dihydroxycoumaranone [NSC 37408], the “inhibition against the proteasome” value is recorded as “superior inhibition”. For the same compound, for the setting “NSC 37408 0.01 uM, CuCl2 0 uM”, the “% Activity” value was 112.6213% and 99.65%; the Average % inhibition is recorded as −6.135%. Besides, under setting [1], the “% Activity” value is 90.87% and 88.81%; the Average % inhibition is recorded as 10.1605%. Besides, under setting [2], the “% Activity” value was 86.05% and 85.2009%; the Average % inhibition was 14.38%. For the same compound, under setting [3], the “% Activity” value was 72.84% and 76.28%; the Average % inhibition came to 25.44%. Also, under setting [4], the “% Activity” value is 54.66% and 61.76%; the Average % inhibition turned out to be 41.79%. Moreover, for the setting “NSC 37408 0.01 uM, CuCl2 1 uM”, the “% Activity” value is 44.58% and 55.7695%; the Average % inhibition is recorded as 49.82%. Besides, where the note is “NSC 37408 0.01 uM, CuCl2 10 uM”, the “% Activity” value is 19.49% and 20.5%; the Average % inhibition stood at 80.0042%. Further, under “NSC 37408 0.02 uM, CuCl2 0 uM”, the “% Activity” value was 96.06% and 94.02%; the Average % inhibition came to 4.963%. Under setting [5], the “% Activity” value is 88.1% and 90.5198%; the Average % inhibition worked out at 10.69%. Also, under setting [6], the “% Activity” value is 68.1% and 55.31%; the Average % inhibition is on record as 38.29%. In addition, under setting [7], the “% Activity” value was 65.88% and 61.48%; the Average % inhibition came to 36.32%. Moreover, under setting [8], the “% Activity” value is 51.0064% and 59.2161%; the Average % inhibition was 44.89%. For the same compound, where the note is “NSC 37408 0.02 uM, CuCl2 1 uM”, the “% Activity” value is 56.05% and 43.65%; the Average % inhibition is 50.1481%. For the same compound, for the setting “NSC 37408 0.02 uM, CuCl2 10 uM”, the “% Activity” value is 17.83% and 17.5873%; the Average % inhibition was determined as 82.29%. In addition, where the note is “NSC 37408 0.2 uM, CuCl2 0 uM”, the “% Activity” value was 105.3933% and 82.75%; the Average % inhibition was 5.927%. Moreover, under setting [9], the “% Activity” value is 94.36% and 76.52%; the Average % inhibition amounted to 14.5582%. Moreover, under setting [10], the “% Activity” value is 85.2901% and 82.94%; the Average % inhibition came to 15.89%. In addition, for the setting “NSC 37408 0.2 uM, CuCl2 0.1 uM”, the “% Activity” value is 73.85% and 60.05%; the Average % inhibition amounted to 33.05%. Further, where the note is “NSC 37408 0.2 uM, CuCl2 0.5 uM”, the “% Activity” value is 64.18% and 61.99%; the Average % inhibition amounted to 36.91%. Also, where the note is “NSC 37408 0.2 uM, CuCl2 1 uM”, the “% Activity” value is 56.85% and 54.95%; the Average % inhibition worked out at 44.1%. Also, where the note is “NSC 37408 0.2 uM, CuCl2 10 uM”, the “% Activity” value was 19.46% and 18.13%; the Average % inhibition is 81.2011%. For the same compound, for the setting “NSC 37408 1 uM, CuCl2 0 uM”, the “% Activity” value is 103.1804% and 90.54%; the Average % inhibition is reported as 3.138%. Moreover, where the note is “NSC 37408 1 uM, CuCl2 0.01 uM”, the “% Activity” value is 72.59% and 75.01%; the Average % inhibition was found to be 26.2%. Where the note is “NSC 37408 1 uM, CuCl2 0.05 uM”, the “% Activity” value is 66.45% and 67.81%; the Average % inhibition is on record as 32.87%. For the same compound, where the note is “NSC 37408 1 uM, CuCl2 0.1 uM”, the “% Activity” value is 65.45% and 59.72%; the Average % inhibition is recorded as 37.4167%. Moreover, where the note is “NSC 37408 1 uM, CuCl2 0.5 uM”, the “% Activity” value was 56.12% and 54.11%; the Average % inhibition amounted to 44.88%. Also, for the setting “NSC 37408 1 uM, CuCl2 1 uM”, the “% Activity” value was 57.76% and 41.6248%; the Average % inhibition is listed as 50.31%. In addition, under “NSC 37408 1 uM, CuCl2 10 uM”, the “% Activity” value is 14.11% and 16.23%; the Average % inhibition is recorded as 84.83%. In addition, for the setting “NSC 37408 2 uM, CuCl2 0 uM”, the “% Activity” value is 97.24% and 74.12%; the Average % inhibition amounted to 14.32%. In addition, under “NSC 37408 2 uM, CuCl2 0.01 uM”, the “% Activity” value is 87.55% and 75.89%; the Average % inhibition was 18.28%. Further, under “NSC 37408 2 uM, CuCl2 0.05 uM”, the “% Activity” value was 61.5% and 61.91%; the Average % inhibition was 38.3%. Besides, for the setting “NSC 37408 2 uM, CuCl2 0.1 uM”, the “% Activity” value is 62.98% and 55.45%; the Average % inhibition came out at 40.79%. Moreover, where the note is “NSC 37408 2 uM, CuCl2 0.5 uM”, the “% Activity” value was 50.79% and 47.45%; the Average % inhibition was 50.8784%. Besides, under “NSC 37408 2 uM, CuCl2 1 uM”, the “% Activity” value is 41.16% and 35.42%; the Average % inhibition is reported as 61.71%. For the same compound, for the setting “NSC 37408 2 uM, CuCl2 10 uM”, the “% Activity” value is 15.32% and 15.04%; the Average % inhibition worked out at 84.82%. Further, for the setting “NSC 37408 20 uM, CuCl2 0 uM”, the “% Activity” value was 99.79% and 91.1158%; the Average % inhibition was found to be 4.548%. In addition, under “NSC 37408 20 uM, CuCl2 0.01 uM”, the “% Activity” value is 71.91% and 89.68%; the Average % inhibition stood at 19.21%. Further, under “NSC 37408 20 uM, CuCl2 0.05 uM”, the “% Activity” value is 54.92% and 76.06%; the Average % inhibition is 34.51%. For the same compound, under “NSC 37408 20 uM, CuCl2 0.1 uM”, the “% Activity” value is 49.04% and 30.46%; the Average % inhibition is given as 60.25%. For the same compound, where the note is “NSC 37408 20 uM, CuCl2 0.5 uM”, the “% Activity” value is 36.6% and 25.36%; the Average % inhibition was found to be 69.02%. Where the note is “NSC 37408 20 uM, CuCl2 1 uM”, the “% Activity” value was 25.4789% and 22.77%; the Average % inhibition was 75.88%. Also, under “NSC 37408 20 uM, CuCl2 10 uM”, the “% Activity” value was 7.426% and 7.089%; the Average % inhibition came out at 92.74%. Also, the IC50 (dose-response assay, in presence of 100 nM copper (FIG. 13)) was 3000 nM. The “capacity to inhibit the proteasome compared with copper chloride alone” value (first round of screening (Table 1), compound complexed with copper) was “better capacity to inhibit the proteasome than copper chloride alone”. Further, under “sub-micromolar copper, triplicate (FIG. 13)”, the “percent inhibition in the presence of copper versus compound alone” value is given as “dramatic improvement of percent inhibition”. Further, the “inhibition in the absence of copper ion” value (various concentrations, no copper (FIG. 10)) is “little if any inhibition”.

On to `[Cl][Cu][Cl]` [CuCl2, copper chloride, reference compound], for which the “% Activity” value reads like this: under setting [11], 116.1267% and 79.27%; under setting [12], 92.35% and 88.54%; under setting [13], 82.9012% and 74.33%; under setting [14], 50.13% and 54.8853%; under setting [15], 65.79% and 56.9%; under setting [16], 21.19% and 16.25%. Moreover, the Average % inhibition was 2.302% under setting [11]; 9.555% under setting [12]; 21.39% under setting [13]; 47.49% under setting [14]; 38.65% under setting [15]; 81.28% under setting [16]. For the same compound, the EC50 (copper chloride alone, dose response (FIG. 11), read-out: EC50 of inhibitory effect on the % activity of the proteasome) is 686 nM. In addition, the “inhibitory activity of copper absent the pro-drug” value (sub-micromolar copper concentration (FIG. 13)) is reported as “no significant inhibitory activity”.

For `NC(=O)SCC(=O)Nc1ccccc1C(=O)O` [compound 13345, 2-{[(carbamoylsulfanyl)acetyl]amino}benzoic acid], the “inhibition against the proteasome” value is reported as “superior inhibition”.

Turning to `O=C(O)c1ccc(O)c(O)c1` [compound 16631, 3,4-dihydroxybenzoic acid], the “inhibition against the proteasome” value was “superior inhibition”.

`O=c1c(-c2ccc(O)cc2)coc2cc(O)cc(O)c12` [compound 36586, 4′,5,7-trihydroxyisoflavone]: the “inhibition against the proteasome” value is given as “superior inhibition”.
